Experimental data from publication PMC8373237 (Antimicrobial Agents and Chemotherapy, 2021).
Values after ≈ are worked out from the molar mass of the structure shown. Read-outs that look alike come from different tables or passages of the source. Marks after values point to notes of the source that are not given here. Square brackets hold non-standard residues; d marks the D form. Peptide text beside a SMILES is read from it. NPrGly = CCCNCC(=O)O; Sar = CNCC(=O)O

What was measured:
[1] = test system: Y. enterocolitica Ysa T3SS (YspF secretion); type: cell-based, Yersinia enterocolitica
[2] = test system: Y. pseudotuberculosis; type: cell-based, Yersinia pseudotuberculosis; settings: 2xYT, 9-120 µM, 12 h
[3] = Kinetic solubility; type: physicochemical
Experimental: […] Then, […] of 15 mM stock compound was added to make a solution of 120 μM final concentration with 0.8% DMSO. The solution was shaken at 37°C for ∼2 h. The solution was passed over a 0.7- μM glass fiber filter. Then, the solution was diluted 1:4 in acetonitrile to crash out any proteins. The solution was centrifuged at 500 × g for 10 min. Avoiding the pellet, 10 μl of supernatant was added to a fresh plate with 90 μl of acetonitrile. The final dilution is 40 times lower. Next, 10 μl of 40× dilution of solution was injected on the Orbi-trap. A 1 μM standard was used for the ratiometric comparison, and the assay was done in triplicate.

[4] = test system: P. aeruginosa PA103 T3SS (ExoU secretion); type: cell-based, Pseudomonas aeruginosa
[5] = test system: Salmonella flagellar T3SS (FliC, FliD secretion); type: cell-based, Salmonella enterica Typhimurium; design: key to Fla fliC (Table 2): NE: No effect observed
[6] = test system: C. trachomatis serovar L2 in HeLa cells; assay: Chlamydia infection of HeLa cells (primary and secondary infection); type: cell-based, Chlamydia trachomatis; design: key to lowest known inhibitory concentration (∼), cell-based infection assay, Chlamydia: NE: No effect observed
Experimental: Primary infections. HeLa cell monolayers were infected with C. trachomatis serovar L2 at a multiplicity of infection (MOI) of 1.0 in the presence of one of the following compounds at 9 μM: DMSO, 4EpDN, or 4EpDN 2Sar. Cells were incubated for 24 h in the presence of the above-listed compounds at 37°C and then fixed with 4% paraformaldehyde (PFA). Cells were stained for IncA (Chlamydia inclusion membrane marker), DNA (with DAPI), and MOMP (Chlamydia major outer membrane protein) simultaneously. This method of staining allows visualization of the inclusion independent of MOMP synthesis or transport. The percentage of cells infected (i.e., stained positively for the listed Chlamydia markers) in the presence of the compounds was quantified using confocal microscopy. Quantifications of inclusion take into account both DAPI staining and indirect immunofluoresence with an antibody to MOMP. Ten randomly selected fields of view were measured per experiment. The data represent three biological replicates.
Secondary infections. HeLa cell monolayers were infected with C. trachomatis serovar L2 at an MOI of 1.0 in the presence of one of the following compounds at 9 μM: DMSO, 4EpDN, or 4EpDN 2Sar. Cells were incubated for 48 h in the presence of the above-listed compounds at 37°C. Infected cells were then lysed, and the lysate was applied to fresh HeLa monolayers to enumerate infectious particles. These secondary infections were fixed in 4% PFA at 24 hpi and were stained against MOMP and DNA. The infectious units per ml (IFU/ml) were calculated by averaging the number of infected cells in each of 10 randomly selected fields of view at ×40 magnification on a confocal microscope and multiplying this by the appropriate dilution and area factors. The data represent four biological replicates.

[7] = test system: Salmonella enterica Typhimurium SPI-1 T3SS (SipA, SipC secretion); type: cell-based
[8] = test system: P. aeruginosa (PAO1); type: cell-based, Pseudomonas aeruginosa
[9] = test system: Ssa-Esc T3SS, EPEC/EHEC; settings: culture-based secretion assay, cited from earlier work
[10] = test system: Salmonella enterica Typhimurium SPI-1 T3SS; settings: cited from earlier work
[11] = test system: Yersinia pseudotuberculosis Ysc T3SS; settings: culture-based secretion assay; ref [87]; cited from earlier work
[12] = test system: Ssa-Esc T3SS, EPEC/EHEC; design: method as in PMID 33316970; settings: translocation assay; ref [109]; read-out: IC50, EspF translocation; cited from earlier work
[13] = test system: Salmonella enterica Typhimurium SPI-1 T3SS; settings: culture-based secretion assay; ref [87]; cited from earlier work
[14] = test system: Yersinia pseudotuberculosis Ysc T3SS; settings: cited from earlier work
[15] = test system: Chlamydiales T3SS, Chlamydia; settings: cell-based infection assay, ref [67], cited from earlier work
[16] = test system: Pseudomonas aeruginosa Psc T3SS; settings: cell-based infection assay, ref [67], cited from earlier work
[17] = test system: Ssa-Esc T3SS, EPEC/EHEC; settings: biochemical assay, cited from earlier work
[18] = test system: Yersinia pseudotuberculosis Ysc T3SS; settings: cited from earlier work; remark: listed apart in the source
[19] = test system: Salmonella enterica Typhimurium SPI-1 T3SS; settings: translocation assay, cited from earlier work

CCCN1CC(=O)N(C)CC(=O)N[C@@H](CC(C)C)C(=O)N[C@@H]([C@@H](C)CC)C(=O)N[C@H](CC(C)C)C(=O)N[C@H](Cc2ccccc2)C1=O [4EpDN 2Sar, 4-EpD1,2N 2Sar] (cyclo(I[dL][dF][NPrGly][Sar]L))
secretion of YspF, in words [1]: did not affect its secretion | bacterial viability in broth culture [2]: did not affect bacterial viability | solubility ([3]; DMEM (no antibiotics)): 61 µM (≈ 40.1 µg/mL) | solubility ([3]; M9): 61 µM (≈ 40.1 µg/mL) | T3SS inhibitory activity (ExoU secretion), in words [4]: significantly reduced activity | inhibition of ExoU secretion ([4]; 9 µM): no effect | inhibition of ExoU secretion ([4]; 60 µM): no effect | IC50 ([4]; read-out: IC50 (Table S1)): ~140 µM | IC50 ([4]; read-out: IC50, inhibition of secretion of T3SS effector ExoU): 140 µM | Fla fliC (Table 2) [5]: NE^d | effect on FliC secretion, in words [5]: no significant effect | effect on FliD secretion, in words [5]: no significant effect | inhibition of formation of infectious progeny ([6]; 9 μM, EBs collected at 48 hpi, fresh monolayers 24 h): not | decrease of primary inclusion formation ([6]; 9 μM, HeLa cells, 24 hpi): not | lowest known inhibitory concentration (∼), cell-based infection assay, Chlamydia ([6]; Table 2, Chlamydiales): NE^d | concentrations at which inhibition of SipC and SipA secretion was seen [7]: greater than 30 μM | lowest known inhibitory concentration (∼), SipAC secretion [7]: ∼30 SipAC^b μM | bacterial viability in broth culture [8]: did not affect bacterial viability

C/C=C\C=C\[C@@H]1O[C@](O)([C@H](CC)C(=O)NC/C=C/C=C(\C)[C@@H](OC)[C@@H](C)[C@@H]2O[C@H](/C=C/C=C/C=C(\C)C(=O)c3c(O)ccn(C)c3=O)[C@H](O)[C@@H]2O)[C@H](O)[C@H](O)C1(C)C [Aurodox]
IC50, EspABCD secretion ([9]; ref [103]): 0.5 μg/ml EspABCD^b

O=C/C=C/c1ccccc1 [Cinnamaldehyde]
lowest known inhibitory concentration (∼), SPI-1, SipAB ([10]; footnotes c and e: cell-based infection assay, SipAB biochemical assay, ref [106]): ∼100^c SipAB^e μM

O=C(O[C@@H]1Cc2c(O)cc(O)cc2O[C@@H]1c1cc(O)c(O)c(O)c1)c1cc(O)c(O)c(O)c1 [Epigallocatechin gallate]
lowest known inhibitory concentration (∼), EspB secretion ([9]; ref [87]): ∼16 μg/ml EspB^b | lowest known inhibitory concentration (∼), Yops secretion [11]: ∼16 μg/ml Yops^b | IC50 [12]: 1.8 µM | lowest known inhibitory concentration (∼), Sips secretion [13]: ∼12μg/ml Sips^b

O=[N+]([O-])c1cc(CN2CCN(c3ccccc3)CC2)c(O)c2ncccc12 [INP1750]
EC50 [14]: 12.4 µM | MIC, Chlamydia [15, 68]: 25 MIC^c μM | lowest known inhibitory concentration (∼), PA [16, 68]: ∼80^c μM

O=[N+]([O-])c1cc(CN2CCN(c3ccc(F)cc3)CC2)c(O)c2ncccc12 [INP1855]
EC50 [14]: 6.3 µM | MIC, Chlamydia [15, 69]: 3.13 MIC^c μM | lowest known inhibitory concentration (∼), PA [16, 69]: ∼60^c μM

O=C(N/N=C/c1ccc(O)cc1O)c1ccc([N+](=O)[O-])cc1 [ME0055]
lowest known inhibitory concentration (∼), LEE genes ([17]; ref [76]): ∼20 LEE genes^e μM

C/C=C(\C)C(O)C(C)/C=C(C)/C=C/C/C(C)=C/Cc1[nH]c(OC)cc(=O)c1C (centres unmarked) [Mer-A 2026B]
lowest known inhibitory concentration (∼), YopM translocation [18]: ∼36; ∼9 YopM^f μM

O=c1c(O)c(-c2cc(O)c(O)c(O)c2)oc2cc(O)cc(O)c12 [Myricetin]
lowest known inhibitory concentration (∼), SipA/B translocation ([19]; ref [107]): ∼4 μg/ml SipA/B^f

C=CCc1ccc(Oc2cc(CC=C)cc(O)c2O)cc1 [Obovatol]
IC50 ([10]; cell-based infection assay, ref [89]): 19.8 µM

C/C=C(\C)[C@H](O)[C@H](C)/C=C(C)/C=C/C/C(C)=C/Cc1nc(OC)c(OC)c(O)c1C [Piercidin A1]
lowest known inhibitory concentration (∼), YopM translocation [18]: ∼36; ∼9 YopM^f μM

COCCn1c2c([n+](Cc3cnccn3)c1C)C(=O)c1ccccc1C2=O [Sepantronium bromide (YM155), Sepantronium bromide]
lowest known inhibitory concentration (∼), SseK1/SseK2, NleB ([17]; ref [110]): ∼2 SseK1/SseK2^e, NleB^e μM

Cc1ccc(C(C)C)c(O)c1 [Thymol]
lowest known inhibitory concentration (∼), SipA translocation ([19]; ref [90]): ∼0.2 mM SipA^f

Tannic acid
IC50 [12]: 0.65 µM
